For 1 compound, IC50 and MIC results are on record in US9957247B2, “SecA inhibitors and methods of making and using thereof” (Georgia State University Research Foundation, Inc., priority 2012, dated 2018).

In one experiment the target is SpSecA (Streptococcus pyogenes, UniProt Q99Y96). It counts as cell-based. As to conditions: read-out: IC50, Ion Channel activity, SpSecA.
The test system of another experiment is S. aureus Mu50. Description: Bacteriostatic effect, S. aureus Mu50. As to conditions: Staphylococcus aureus, MU50, read-out: MIC95 against drug resistant S. aureus Mu50.
Experiment [1] has as its target T1, EcSecA (Escherichia coli, UniProt P10408). As to the kind of experiment: biochemical. To be noted: IC50, Protein Translocation, Table 1.
Target sequence in this assay (P0AG99 whole entry): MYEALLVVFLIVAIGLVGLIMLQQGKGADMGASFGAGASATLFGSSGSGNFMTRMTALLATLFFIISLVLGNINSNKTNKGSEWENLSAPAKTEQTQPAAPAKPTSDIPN
Target sequence in this assay (P10408 whole entry): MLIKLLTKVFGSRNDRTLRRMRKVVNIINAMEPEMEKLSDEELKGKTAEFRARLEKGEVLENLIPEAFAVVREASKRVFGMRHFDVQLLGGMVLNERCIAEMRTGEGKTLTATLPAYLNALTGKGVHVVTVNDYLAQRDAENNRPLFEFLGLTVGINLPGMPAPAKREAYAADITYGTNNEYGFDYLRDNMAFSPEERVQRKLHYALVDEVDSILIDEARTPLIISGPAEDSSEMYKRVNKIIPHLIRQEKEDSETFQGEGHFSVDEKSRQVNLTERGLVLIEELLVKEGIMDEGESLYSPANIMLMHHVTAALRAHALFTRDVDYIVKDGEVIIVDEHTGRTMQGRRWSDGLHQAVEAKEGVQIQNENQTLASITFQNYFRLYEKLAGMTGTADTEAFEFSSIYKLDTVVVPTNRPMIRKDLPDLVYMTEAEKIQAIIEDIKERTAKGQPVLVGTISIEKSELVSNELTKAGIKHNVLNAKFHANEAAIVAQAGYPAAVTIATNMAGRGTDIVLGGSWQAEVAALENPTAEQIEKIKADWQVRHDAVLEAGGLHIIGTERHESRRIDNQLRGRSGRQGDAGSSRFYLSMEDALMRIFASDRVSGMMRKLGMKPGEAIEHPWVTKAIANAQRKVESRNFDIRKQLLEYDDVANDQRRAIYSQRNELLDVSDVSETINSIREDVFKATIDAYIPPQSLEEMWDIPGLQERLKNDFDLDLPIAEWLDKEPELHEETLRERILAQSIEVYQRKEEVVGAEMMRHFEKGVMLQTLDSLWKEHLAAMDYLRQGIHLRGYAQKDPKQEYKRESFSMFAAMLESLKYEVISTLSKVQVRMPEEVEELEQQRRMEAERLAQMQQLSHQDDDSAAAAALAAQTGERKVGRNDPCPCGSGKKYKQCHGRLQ
Target sequence in this assay (P0AGA2 whole entry, further chain): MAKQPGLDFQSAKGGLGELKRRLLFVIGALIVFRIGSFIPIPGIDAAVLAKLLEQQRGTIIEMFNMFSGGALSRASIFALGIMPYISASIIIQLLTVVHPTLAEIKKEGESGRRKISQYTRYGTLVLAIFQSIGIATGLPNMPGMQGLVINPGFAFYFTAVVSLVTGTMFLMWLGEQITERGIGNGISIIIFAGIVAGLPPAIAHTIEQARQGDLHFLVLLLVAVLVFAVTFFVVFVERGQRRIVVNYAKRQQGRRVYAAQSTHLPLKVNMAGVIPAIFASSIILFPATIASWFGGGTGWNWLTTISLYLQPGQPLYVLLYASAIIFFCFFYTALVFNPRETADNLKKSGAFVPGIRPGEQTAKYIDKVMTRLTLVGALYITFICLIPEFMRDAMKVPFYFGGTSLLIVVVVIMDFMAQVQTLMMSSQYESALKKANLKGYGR
Target sequence in this assay (P0AG96 whole entry, further chain): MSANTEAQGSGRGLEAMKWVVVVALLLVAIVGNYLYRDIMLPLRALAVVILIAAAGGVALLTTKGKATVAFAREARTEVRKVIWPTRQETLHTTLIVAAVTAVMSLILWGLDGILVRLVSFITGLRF
A further experiment addresses BaSecA1 (Bacillus anthracis, UniProt Q81X26). Description: cell-based. To be noted: read-out: IC50, Ion Channel activity, BGaSecA 1.
Experiment [2] concerns the target T2, BsSecA (Bacillus subtilis, UniProt P28366). As to the kind of experiment: biochemical. Type of experiment: biochemical, B. subtilis.
The next experiment addresses T3, SaSecA1 (Staphylococcus aureus, UniProt O06446).
T3 sequence (O06446 1-843): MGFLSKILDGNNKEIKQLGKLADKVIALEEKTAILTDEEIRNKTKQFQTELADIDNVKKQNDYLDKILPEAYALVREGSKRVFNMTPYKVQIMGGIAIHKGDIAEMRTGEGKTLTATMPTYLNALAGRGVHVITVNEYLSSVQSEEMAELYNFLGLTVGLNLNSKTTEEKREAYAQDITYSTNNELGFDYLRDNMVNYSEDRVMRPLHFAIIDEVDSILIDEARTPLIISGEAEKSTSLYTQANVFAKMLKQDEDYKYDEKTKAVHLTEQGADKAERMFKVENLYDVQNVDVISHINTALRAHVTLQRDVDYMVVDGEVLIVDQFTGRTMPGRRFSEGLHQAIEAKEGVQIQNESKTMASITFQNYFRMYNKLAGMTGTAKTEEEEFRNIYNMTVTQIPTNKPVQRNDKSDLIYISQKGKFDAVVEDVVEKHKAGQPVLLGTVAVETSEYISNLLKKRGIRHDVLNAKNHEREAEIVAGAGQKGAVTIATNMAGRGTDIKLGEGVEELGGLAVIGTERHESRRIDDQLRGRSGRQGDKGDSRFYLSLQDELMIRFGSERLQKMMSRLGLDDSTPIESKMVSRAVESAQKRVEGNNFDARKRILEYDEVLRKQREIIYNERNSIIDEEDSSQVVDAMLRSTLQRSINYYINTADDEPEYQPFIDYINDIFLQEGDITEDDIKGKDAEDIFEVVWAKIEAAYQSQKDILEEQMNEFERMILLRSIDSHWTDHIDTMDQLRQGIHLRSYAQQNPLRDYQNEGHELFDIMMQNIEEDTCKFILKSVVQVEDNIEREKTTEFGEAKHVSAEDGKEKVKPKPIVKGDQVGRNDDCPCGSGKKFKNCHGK
To be noted: read-out: IC50, Ion Channel activity, SaSecA1; Table 1.

The target of another experiment is T4, SaSecA2 (Staphylococcus aureus, UniProt Q2FUW6).
T4 sequence (Q2FUW6 1-796): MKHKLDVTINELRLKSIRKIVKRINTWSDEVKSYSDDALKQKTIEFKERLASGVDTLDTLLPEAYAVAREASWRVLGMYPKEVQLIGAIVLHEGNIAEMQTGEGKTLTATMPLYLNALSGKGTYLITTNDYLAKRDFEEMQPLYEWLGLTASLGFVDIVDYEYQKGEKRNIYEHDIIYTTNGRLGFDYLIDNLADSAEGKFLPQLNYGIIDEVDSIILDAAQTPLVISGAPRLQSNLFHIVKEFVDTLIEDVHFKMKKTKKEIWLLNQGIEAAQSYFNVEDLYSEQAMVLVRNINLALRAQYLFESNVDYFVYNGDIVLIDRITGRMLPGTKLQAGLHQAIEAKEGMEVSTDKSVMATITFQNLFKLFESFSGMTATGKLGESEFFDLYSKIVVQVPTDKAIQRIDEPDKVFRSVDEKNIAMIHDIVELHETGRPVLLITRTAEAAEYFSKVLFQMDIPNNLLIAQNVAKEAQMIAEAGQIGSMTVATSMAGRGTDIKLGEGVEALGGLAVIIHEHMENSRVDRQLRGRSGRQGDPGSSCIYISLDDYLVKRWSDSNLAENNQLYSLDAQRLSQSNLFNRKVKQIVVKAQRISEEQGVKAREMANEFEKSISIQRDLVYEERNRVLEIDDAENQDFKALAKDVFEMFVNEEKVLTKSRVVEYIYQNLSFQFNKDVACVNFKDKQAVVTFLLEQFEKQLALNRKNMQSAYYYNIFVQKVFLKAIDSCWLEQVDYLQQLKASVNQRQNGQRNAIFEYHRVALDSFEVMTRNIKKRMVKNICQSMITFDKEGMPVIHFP
As to the kind of experiment: ATPase activity assay (malachite green), SaSecA2. To be noted: IC50, Intrinsic ATPase, SaSecA2, Table 1.

Experiment [3] deals with T2, BsSecA. As to the kind of experiment: cell-based. As to conditions: Table 1; read-out: IC50, Ion Channel activity, BsSecA. The arrangement: species or system B. subtilis.
The next experiment has as its target BsSecA2. To be noted: read-out: IC50, Intrinsic ATPase, BsSecA2; Table 1.
For another experiment, the target named is MsSecA (Mycolicibacterium smegmatis, UniProt P71533). As to the kind of experiment: SecA-liposomes ion-channel activity in oocytes, MsSecA. It counts as cell-based. To be noted: Table 1.
Experiment [4] addresses T1, EcSecA. As to conditions: read-out: IC50, Ion Channel activity, EcSecA; Table 1.
Target sequence in this assay (P10408 whole entry): as the sequence (P10408 whole entry) above
The target in experiment [5] is T1, EcSecA. To be noted: read-out: IC50, Translocation ATPase, EcSecA; Table 1.
Target sequence in this assay (P0AG99 whole entry): as the sequence (P0AG99 whole entry) above
Target sequence in this assay (P10408 whole entry): as the sequence (P10408 whole entry) above
Target sequence in this assay (P0AGA2 whole entry, further chain): as the sequence (P0AGA2 whole entry, further chain) above
Target sequence in this assay (P0AG96 whole entry, further chain): as the sequence (P0AG96 whole entry, further chain) above
A further experiment concerns the target EcSecA N68 (Escherichia coli, UniProt P10408). Description: biochemical. It counts as biochemical, E. coli. To be noted: Table 1; read-out: IC50, Intrinsic ATPase, EcSecA N68.
A further experiment has as its target MtbSecA (Mycobacterium tuberculosis, UniProt P9WGP5). As to the kind of experiment: cell-based.
For another experiment, the target named is PaSecA (Pseudomonas aeruginosa, UniProt Q9LCT3). Description: cell-based. Type of experiment: cell-based. As to conditions: IC50, Ion Channel activity, PASecA, Table 1.
In the next experiment the test system is S. pyogenes, MGAS5005. Description: MIC95, S. pyogenes MGAS5005. It counts as cell-based. To be noted: Streptococcus pyogenes, MGAS5005; read-out: MIC95, S. pyogenes MGAS5005.

Each structure is given as a SMILES string. Values after ≈ are worked out from the molar mass of the structure shown. Read-outs that look alike come from different tables or passages of the source. Some results are limits rather than exact numbers.

T2 sequence (P28366 whole entry): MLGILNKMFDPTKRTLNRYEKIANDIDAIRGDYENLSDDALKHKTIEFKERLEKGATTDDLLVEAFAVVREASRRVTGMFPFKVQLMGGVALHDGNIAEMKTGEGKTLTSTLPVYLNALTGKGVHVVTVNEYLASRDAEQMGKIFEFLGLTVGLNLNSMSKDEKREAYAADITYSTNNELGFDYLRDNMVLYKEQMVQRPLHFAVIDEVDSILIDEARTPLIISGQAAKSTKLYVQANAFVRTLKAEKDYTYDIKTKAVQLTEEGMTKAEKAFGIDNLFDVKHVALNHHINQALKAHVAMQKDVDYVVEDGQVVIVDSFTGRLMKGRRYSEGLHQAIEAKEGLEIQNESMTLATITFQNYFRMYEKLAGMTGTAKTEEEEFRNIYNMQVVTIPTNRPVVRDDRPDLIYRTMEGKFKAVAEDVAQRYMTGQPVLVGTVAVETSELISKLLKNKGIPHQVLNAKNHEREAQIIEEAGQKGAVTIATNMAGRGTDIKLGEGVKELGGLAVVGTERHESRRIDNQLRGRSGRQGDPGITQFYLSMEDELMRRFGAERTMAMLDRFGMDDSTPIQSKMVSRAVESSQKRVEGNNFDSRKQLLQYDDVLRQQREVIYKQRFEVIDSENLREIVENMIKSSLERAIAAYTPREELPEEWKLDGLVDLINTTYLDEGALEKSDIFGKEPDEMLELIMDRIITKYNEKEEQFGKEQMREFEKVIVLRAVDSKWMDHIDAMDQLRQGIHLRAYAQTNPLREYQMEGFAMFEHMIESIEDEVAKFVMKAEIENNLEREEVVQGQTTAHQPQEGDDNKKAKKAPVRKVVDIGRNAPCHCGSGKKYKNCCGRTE
Chain of BaSecA1 (Q81X26 whole entry, looked up): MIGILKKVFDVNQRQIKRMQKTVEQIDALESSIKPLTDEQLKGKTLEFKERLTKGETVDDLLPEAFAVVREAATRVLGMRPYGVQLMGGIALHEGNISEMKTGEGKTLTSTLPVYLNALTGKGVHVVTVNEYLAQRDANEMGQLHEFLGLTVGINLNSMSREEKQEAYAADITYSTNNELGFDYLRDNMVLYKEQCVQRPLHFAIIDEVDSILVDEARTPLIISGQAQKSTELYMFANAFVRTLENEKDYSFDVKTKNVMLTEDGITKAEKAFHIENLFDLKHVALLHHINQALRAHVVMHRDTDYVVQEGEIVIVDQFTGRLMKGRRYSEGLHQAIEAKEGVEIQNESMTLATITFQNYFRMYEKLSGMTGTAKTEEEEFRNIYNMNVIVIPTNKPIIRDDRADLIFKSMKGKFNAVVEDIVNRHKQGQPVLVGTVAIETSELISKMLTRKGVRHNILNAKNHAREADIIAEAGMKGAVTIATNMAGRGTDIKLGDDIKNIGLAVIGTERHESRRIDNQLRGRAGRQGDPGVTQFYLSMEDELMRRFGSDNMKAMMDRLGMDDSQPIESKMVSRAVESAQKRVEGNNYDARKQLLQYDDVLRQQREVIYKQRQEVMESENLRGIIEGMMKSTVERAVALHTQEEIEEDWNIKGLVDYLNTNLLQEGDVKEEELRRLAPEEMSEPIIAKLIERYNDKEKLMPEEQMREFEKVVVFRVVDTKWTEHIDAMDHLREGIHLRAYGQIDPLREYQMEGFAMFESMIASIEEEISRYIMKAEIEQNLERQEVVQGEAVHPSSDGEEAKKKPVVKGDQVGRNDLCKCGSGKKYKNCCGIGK
Chain of MtbSecA (P9WGP5 whole entry): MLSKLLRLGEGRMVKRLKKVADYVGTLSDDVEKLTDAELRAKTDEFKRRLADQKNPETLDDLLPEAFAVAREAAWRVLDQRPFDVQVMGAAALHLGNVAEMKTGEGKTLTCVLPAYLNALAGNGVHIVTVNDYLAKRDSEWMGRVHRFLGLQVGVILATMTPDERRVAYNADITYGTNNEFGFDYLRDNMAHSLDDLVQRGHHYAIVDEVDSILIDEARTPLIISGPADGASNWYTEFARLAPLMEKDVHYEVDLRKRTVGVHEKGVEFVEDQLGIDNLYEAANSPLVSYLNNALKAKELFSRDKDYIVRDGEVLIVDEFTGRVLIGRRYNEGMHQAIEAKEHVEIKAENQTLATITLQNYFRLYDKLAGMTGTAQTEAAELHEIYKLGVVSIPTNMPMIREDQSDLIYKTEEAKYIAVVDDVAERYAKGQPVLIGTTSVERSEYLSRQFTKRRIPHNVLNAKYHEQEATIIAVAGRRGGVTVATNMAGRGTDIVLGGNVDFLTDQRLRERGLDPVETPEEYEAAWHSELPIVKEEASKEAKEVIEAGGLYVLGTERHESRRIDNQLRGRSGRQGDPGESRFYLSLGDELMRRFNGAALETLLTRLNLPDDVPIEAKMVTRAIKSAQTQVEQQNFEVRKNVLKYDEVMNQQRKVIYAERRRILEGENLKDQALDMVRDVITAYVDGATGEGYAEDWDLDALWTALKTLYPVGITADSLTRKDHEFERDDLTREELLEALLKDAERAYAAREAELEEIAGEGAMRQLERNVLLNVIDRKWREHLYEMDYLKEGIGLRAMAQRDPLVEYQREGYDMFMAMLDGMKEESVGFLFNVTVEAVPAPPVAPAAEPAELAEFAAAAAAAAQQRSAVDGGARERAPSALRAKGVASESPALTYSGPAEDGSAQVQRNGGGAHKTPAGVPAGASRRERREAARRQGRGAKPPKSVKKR
Chain of EcSecA N68 (P10408 1-610): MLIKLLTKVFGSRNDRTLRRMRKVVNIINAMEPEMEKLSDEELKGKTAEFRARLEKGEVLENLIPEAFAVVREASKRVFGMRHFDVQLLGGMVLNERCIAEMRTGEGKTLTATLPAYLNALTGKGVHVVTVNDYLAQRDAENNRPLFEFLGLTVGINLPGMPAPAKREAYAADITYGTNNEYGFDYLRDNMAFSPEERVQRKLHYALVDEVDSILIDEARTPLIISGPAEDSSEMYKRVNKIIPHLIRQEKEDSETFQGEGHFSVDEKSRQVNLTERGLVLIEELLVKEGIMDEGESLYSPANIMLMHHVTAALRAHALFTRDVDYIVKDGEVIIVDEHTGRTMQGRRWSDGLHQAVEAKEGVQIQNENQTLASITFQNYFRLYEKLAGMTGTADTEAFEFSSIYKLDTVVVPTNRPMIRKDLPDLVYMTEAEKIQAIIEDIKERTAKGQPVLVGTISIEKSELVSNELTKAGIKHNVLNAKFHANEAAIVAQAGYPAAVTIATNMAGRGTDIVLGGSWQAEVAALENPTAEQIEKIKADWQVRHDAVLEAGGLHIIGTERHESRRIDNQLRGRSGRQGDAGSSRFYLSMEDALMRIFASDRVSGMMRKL

For `CSc1nc(Cl)cc(Sc2nnc(-c3cc(C(F)(F)F)cc(C(F)(F)F)c3)[nH]2)n1` [SCA-107], the half-maximal inhibitory concentration (IC50) was 700 nM at SpSecA; 25 µM on EcSecA [1]; 700 nM on BaSecA1; greater than 200 µM against BsSecA [2]; 600 nM on SaSecA1; 50 µM on SaSecA2. Besides, the concentration for half-maximal inhibition (IC50) at BsSecA [3] is 2100 nM; on BsSecA2, 65 µM; against MsSecA it was 2500 nM; at EcSecA [4] it was 1600 nM; at EcSecA [5], 28 µM; at EcSecA N68 it was 30 µM. In addition, the IC50 against MtbSecA is 2000 nM; against PaSecA, 1300 nM. Further, the MIC with S. aureus Mu50 was found to be 0.5 µM (≈ 0.236 µg/mL); with S. pyogenes, MGAS5005 it was 0.19 µM (≈ 0.0896 µg/mL).

The IC50 is the point on the concentration scale where inhibition reaches its midpoint.
